In ChEMBL document CHEMBL1201862, “PubChem BioAssay data set” (2004):
Active and inactive are the calls of the source.

Experiments:
[1] = target: Apoptotic protease-activating factor 1 (Homo sapiens, UniProt O14727); type: functional
[2] = target: Glycogen synthase kinase-3 alpha (Homo sapiens, UniProt P49840); assay: Inhibition of Human GSK-3 alpha Activity Measured in Biochemical System Using Microfluidics - 2063-06_Inhibitor_Dose_DryPowder_Activity_Set2. [Related pubchem assays (depositor defined):AID2709]
[3] = target: Glycogen synthase kinase-3 beta (Homo sapiens, UniProt P49841); assay: Inhibition of Human GSK-3 beta Activity Measured in Biochemical System Using Microfluidics - 2063-05_Inhibitor_Dose_DryPowder_Activity_Set2. [Related pubchem assays (depositor defined):AID2709]
[4] = tested on: INS1; assay: protection of INS-1E cells from cytokine death, dose response, ATP luminescence, dry powder (AID 488844); type: functional, cell-based; conditions: Rattus norvegicus
[5] = tested on: INS1; assay: protection from cytokine-driven beta-cell apoptosis, dose response, JC-1 fluorescence, INS-1E, dry powder, set 2 (AID 488867); type: functional, cell-based; conditions: Rattus norvegicus
[6] = tested on: INS1; assay: inhibitors of cytokine-induced nitrite release, dose response, cell-based, Griess absorbance, INS-1E, dry powder, set 2 (AID 488868); type: functional; conditions: Rattus norvegicus
[7] = Vero cell cytotoxicity, cytotoxicity control for M. tuberculosis inhibitor project, purified and synthesized samples, set 8 (AID 602431); type: functional; conditions: Mycobacterium tuberculosis
[8] = THP-1 cell cytotoxicity, cytotoxicity control, set 6 (AID 602433); type: functional; conditions: Mycobacterium tuberculosis

Chain of Glycogen synthase kinase-3 beta (P49841 whole entry): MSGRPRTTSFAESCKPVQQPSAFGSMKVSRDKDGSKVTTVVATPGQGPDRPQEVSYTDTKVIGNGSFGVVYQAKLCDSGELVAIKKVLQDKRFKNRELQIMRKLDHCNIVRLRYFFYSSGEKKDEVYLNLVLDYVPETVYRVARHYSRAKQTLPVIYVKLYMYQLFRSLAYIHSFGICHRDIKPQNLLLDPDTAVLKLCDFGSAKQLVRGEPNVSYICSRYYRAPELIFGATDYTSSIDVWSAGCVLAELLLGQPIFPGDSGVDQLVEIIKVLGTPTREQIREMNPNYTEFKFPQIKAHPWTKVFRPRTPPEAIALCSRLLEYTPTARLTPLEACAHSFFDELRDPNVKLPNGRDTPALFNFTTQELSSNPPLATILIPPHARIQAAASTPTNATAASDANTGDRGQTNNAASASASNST
Chain of Apoptotic protease-activating factor 1 (O14727 whole entry): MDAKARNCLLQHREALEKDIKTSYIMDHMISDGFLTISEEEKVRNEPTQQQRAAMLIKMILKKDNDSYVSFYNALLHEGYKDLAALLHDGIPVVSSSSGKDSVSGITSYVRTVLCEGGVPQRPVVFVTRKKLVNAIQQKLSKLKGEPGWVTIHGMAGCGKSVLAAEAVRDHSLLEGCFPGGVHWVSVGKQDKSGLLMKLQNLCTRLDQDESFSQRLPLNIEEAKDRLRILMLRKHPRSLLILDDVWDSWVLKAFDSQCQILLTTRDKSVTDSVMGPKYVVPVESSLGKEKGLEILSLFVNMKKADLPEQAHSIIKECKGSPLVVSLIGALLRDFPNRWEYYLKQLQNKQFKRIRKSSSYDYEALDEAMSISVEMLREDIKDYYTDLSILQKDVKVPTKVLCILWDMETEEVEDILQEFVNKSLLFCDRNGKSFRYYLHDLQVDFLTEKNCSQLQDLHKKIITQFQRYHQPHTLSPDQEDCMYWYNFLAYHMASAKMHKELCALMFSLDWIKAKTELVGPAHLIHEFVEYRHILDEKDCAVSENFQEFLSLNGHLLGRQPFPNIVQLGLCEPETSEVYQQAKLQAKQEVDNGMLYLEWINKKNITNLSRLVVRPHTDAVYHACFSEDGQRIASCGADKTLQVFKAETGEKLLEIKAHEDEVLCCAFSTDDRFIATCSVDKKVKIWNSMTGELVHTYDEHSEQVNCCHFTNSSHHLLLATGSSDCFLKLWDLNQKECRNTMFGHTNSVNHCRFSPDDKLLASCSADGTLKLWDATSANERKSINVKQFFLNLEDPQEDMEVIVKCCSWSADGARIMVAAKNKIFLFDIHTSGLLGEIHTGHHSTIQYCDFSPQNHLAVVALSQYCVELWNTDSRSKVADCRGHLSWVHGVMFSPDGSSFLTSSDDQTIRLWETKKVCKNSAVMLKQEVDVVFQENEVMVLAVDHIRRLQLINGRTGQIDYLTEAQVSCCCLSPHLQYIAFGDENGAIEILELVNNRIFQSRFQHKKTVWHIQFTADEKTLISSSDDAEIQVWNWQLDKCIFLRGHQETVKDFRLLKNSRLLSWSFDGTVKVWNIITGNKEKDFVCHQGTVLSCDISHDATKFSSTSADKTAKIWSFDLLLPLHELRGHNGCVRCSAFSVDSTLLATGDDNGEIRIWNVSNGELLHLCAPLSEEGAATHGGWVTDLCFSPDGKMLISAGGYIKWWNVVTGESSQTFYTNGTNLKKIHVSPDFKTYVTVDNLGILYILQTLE
Chain of Glycogen synthase kinase-3 alpha (P49840 whole entry): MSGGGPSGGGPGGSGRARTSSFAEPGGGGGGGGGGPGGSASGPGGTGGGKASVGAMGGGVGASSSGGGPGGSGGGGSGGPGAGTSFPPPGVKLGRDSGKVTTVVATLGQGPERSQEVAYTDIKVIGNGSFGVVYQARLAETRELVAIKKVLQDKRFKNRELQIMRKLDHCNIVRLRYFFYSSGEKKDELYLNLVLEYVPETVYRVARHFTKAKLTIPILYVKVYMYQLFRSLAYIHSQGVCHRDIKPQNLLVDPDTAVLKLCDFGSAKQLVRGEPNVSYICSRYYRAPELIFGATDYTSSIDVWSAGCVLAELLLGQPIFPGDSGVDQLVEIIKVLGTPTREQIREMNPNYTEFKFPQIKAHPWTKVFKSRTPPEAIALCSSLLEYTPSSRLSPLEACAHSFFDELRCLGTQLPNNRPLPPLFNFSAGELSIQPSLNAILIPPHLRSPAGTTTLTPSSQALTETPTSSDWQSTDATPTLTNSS

SMILES: Cc1ccc(-n2nc3ccc(N)cc3n2)cc1Cl
- IC50 [1]: > 100 µM (inactive)

SMILES: Nc1nonc1-n1nnc(C(=O)N/N=C/c2ccccc2Cl)c1CN1CCOCC1
- AC50 [2]: 5.64 µM (active)
- AC50 [3]: 2 µM (active)

SMILES: COc1ccc(S(=O)(=O)N(C)C[C@@H]2Oc3c(NC(=O)Nc4cccc5ccccc45)cccc3C(=O)N([C@H](C)CO)C[C@H]2C)cc1
- AC50 [4]: 18.4 µM (active)
- AC50 [5]: > 235 µM (inactive)
- AC50 [6]: 74.5 µM (active)

SMILES: COc1ccc(NC(=O)NCc2ccc(C(=O)N3CCC(c4ccccc4)CC3)cc2)cc1
- CC50 [7]: 91.3 µM (active)
- CC50 [8]: > 98.9 µM (active)
